Results taken from PubChem BioAssay (NCI).
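Briefly, cells in 96-well plates were exposed to five compound concentrations for 48 h, and endpoints were estimated by linear interpolation. The concentration for 50% growth inhibition is given as GI50. TGI: concentration producing complete growth inhibition.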

Legend:
Assay in all cases: NCI-60 cell line screen, 48 h
[1] = test system: 786-0 renal
[2] = test system: A498 renal
[3] = test system: A549 NSCLC
[4] = test system: ACHN renal
[5] = test system: BT-549 breast
[6] = test system: CAKI-1 renal
[7] = test system: CCRF-CEM leukemia
[8] = test system: COLO 205 colon
[9] = test system: DU-145 prostate
[10] = test system: EKVX NSCLC
[11] = test system: HCC-2998 colon
[12] = test system: HCT-116 colon
[13] = test system: HCT-15 colon
[14] = test system: HL-60(TB) leukemia
[15] = test system: HOP-62 NSCLC
[16] = test system: HOP-92 NSCLC
[17] = test system: HS 578T breast
[18] = test system: HT29 colon
[19] = test system: IGROV1 ovarian
[20] = test system: K-562 leukemia
[21] = test system: KM12 colon
[22] = test system: LOX IMVI melanoma
[23] = test system: M14 melanoma
[24] = test system: MALME-3M melanoma
[25] = test system: MCF7 breast
[26] = test system: MDA-MB-231 breast
[27] = test system: MDA-MB-435
[28] = test system: MOLT-4 leukemia
[29] = test system: NCI-H226 lung
[30] = test system: NCI-H23 lung
[31] = test system: NCI-H460 lung
[32] = test system: NCI/ADR-RES ovarian
[33] = test system: OVCAR-4 ovarian
[34] = test system: OVCAR-5 ovarian
[35] = test system: OVCAR-8 ovarian
[36] = test system: PC-3 prostate
[37] = test system: RPMI-8226 leukemia
[38] = test system: RXF 393 renal
[39] = test system: SF-268 CNS
[40] = test system: SF-295 CNS
[41] = test system: SF-539 CNS
[42] = test system: SK-MEL-2 melanoma
[43] = test system: SK-MEL-28 melanoma
[44] = test system: SK-MEL-5 melanoma
[45] = test system: SK-OV-3 ovarian
[46] = test system: SN12C renal
[47] = test system: SNB-19 CNS
[48] = test system: SNB-75 CNS
[49] = test system: SR leukemia
[50] = test system: SW-620 colon
[51] = test system: T-47D breast
[52] = test system: TK-10 renal
[53] = test system: U251 CNS
[54] = test system: UACC-257 melanoma
[55] = test system: UACC-62 melanoma
[56] = test system: UO-31 renal

## Oc1ccccc1-c1nnc(SCc2ccc(O)c3ncccc23)n1-c1ccccc1
[1]
  GI50: 513 nM
  TGI: 12 µM
[2]
  GI50: 1850 nM
  TGI: 7.44 µM
[3]
  GI50: 441 nM
  TGI: > 100 µM
[4]
  GI50: 331 nM
  TGI: 26.3 µM
[5]
  GI50: 494 nM
  TGI: > 100 µM
[6]
  GI50: 382 nM
  TGI: 24.6 µM
[7]
  GI50: 379 nM
  TGI: > 100 µM
[8]
  GI50: 4.01 µM
  TGI: 32 µM
[9]
  GI50: 498 nM
  TGI: > 90.8 µM
[10]
  GI50: 437 nM
  TGI: 9.81 µM
[11]
  GI50: 552 nM
  TGI: > 95.2 µM
[12]
  GI50: 325 nM
  TGI: > 100 µM
[13]
  GI50: 323 nM
  TGI: > 100 µM
[14]
  GI50: 326 nM
  TGI: 2380 nM
[15]
  GI50: 377 nM
  TGI: > 21 µM
[16]
  GI50: 106 nM
  TGI: 654 nM
[17]
  GI50: 357 nM
  TGI: > 100 µM
[18]
  GI50: 3.62 µM
  TGI: > 51.4 µM
[19]
  GI50: 406 nM
  TGI: > 100 µM
[20]
  GI50: 270 nM
  TGI: > 100 µM
[21]
  GI50: 485 nM
  TGI: > 75.3 µM
[22]
  GI50: 350 nM
  TGI: > 35.3 µM
[23]
  GI50: 418 nM
[24]
  GI50: 806 nM
  TGI: 7.89 µM
[25]
  GI50: 310 nM
  TGI: > 100 µM
[26]
  GI50: 432 nM
  TGI: 24.2 µM
[27]
  GI50: 402 nM
  TGI: > 100 µM
[28]
  GI50: 434 nM
  TGI: > 100 µM
[29]
  GI50: 1770 nM
  TGI: > 100 µM
[30]
  GI50: 412 nM
  TGI: > 100 µM
[31]
  GI50: 372 nM
  TGI: > 100 µM
[32]
  GI50: 279 nM
  TGI: > 100 µM
[33]
  GI50: 641 nM
  TGI: > 100 µM
[34]
  GI50: 2110 nM
  TGI: > 100 µM
[35]
  GI50: 375 nM
  TGI: > 41.5 µM
[36]
  GI50: 488 nM
  TGI: > 100 µM
[37]
  GI50: 399 nM
  TGI: > 100 µM
[38]
  GI50: 666 nM
  TGI: 80.2 µM
[39]
  GI50: 475 nM
  TGI: > 100 µM
[40]
  GI50: 347 nM
  TGI: > 53.8 µM
[41]
  GI50: 438 nM
  TGI: 13.7 µM
[42]
  GI50: 361 nM
[43]
  GI50: 543 nM
  TGI: > 100 µM
[44]
  GI50: 349 nM
  TGI: 1530 nM
[45]
  GI50: 376 nM
  TGI: > 19.7 µM
[46]
  GI50: 347 nM
  TGI: 52.7 µM
[47]
  GI50: 378 nM
  TGI: > 100 µM
[48]
  GI50: 416 nM
  TGI: > 58.8 µM
[49]
  GI50: 345 nM
  TGI: > 100 µM
[50]
  GI50: 429 nM
  TGI: > 100 µM
[51]
  GI50: 344 nM
  TGI: > 100 µM
[52]
  GI50: 417 nM
  TGI: > 100 µM
[53]
  GI50: 363 nM
  TGI: > 100 µM
[54]
  GI50: 514 nM
  TGI: > 26.8 µM
[55]
  GI50: 426 nM
  TGI: 2540 nM
[56]
  GI50: 291 nM
  TGI: 2480 nM
